Test results taken from the Deep4Chem optical property database.

Assay: solvent given as SMILES

Which fluorescence lifetime (in ClCCl) does the source give for `c1ccc(C(=C(c2ccccc2)c2ccc(-c3ccc(-c4nc5c(-c6ccc(-c7ccc(C(=C(c8ccccc8)c8ccccc8)c8ccccc8)cc7)cc6)sc(-c6ccc(-c7ccc(C(=C(c8ccccc8)c8ccccc8)c8ccccc8)cc7)cc6)c5nc4-c4ccc(-c5ccc(C(=C(c6ccccc6)c6ccccc6)c6ccccc6)cc5)cc4)cc3)cc2)c2ccccc2)cc1` here?
The fluorescence lifetime was 6.7 ns.

For `O=P1(c2ccccc2)c2ccc(N3c4ccccc4Sc4ccccc43)cc2-c2cc(N3c4ccccc4Sc4ccccc43)ccc21`, which fluorescence lifetime (in c1ccc2c(c1)c1ccccc1n2-c1ccc(-c2ccc(-n3c4ccccc4c4ccccc43)cc2)cc1) is on record?
Its fluorescence lifetime is 26 ns.

For `c1csc(-c2ccc(-c3cccs3)c3nsnc23)c1`, which fluorescence lifetime (in ClC(Cl)Cl) is on record?
Its fluorescence lifetime is 10.2 ns.

With `CCCCn1c(-c2ccc(-c3nnc(-c4ccccc4)o3)cc2)nc(-c2ccccc2)c1-c1ccccc1` as the compound, how does the fluorescence lifetime (in ClCCl) read?
The fluorescence lifetime was 1.76 ns.

With `O=C1NC(=O)c2ccc3c4ccc5c6c(ccc(c7ccc1c2c73)c64)C(=O)N(c1ccc(O)cc1)C5=O` as the compound, how does the fluorescence lifetime (in CN(C)C=O) read?
Its fluorescence lifetime is 2.8 ns.

Which fluorescence lifetime (in CS(C)=O) does the source give for `O=c1c2cc(S(=O)(=O)Cl)ccc2[nH]c2ccc(S(=O)(=O)Cl)cc12` here?
Its fluorescence lifetime is 10.8 ns.

With `Cc1ccccc1C1=C2C=c3c(oc4ccccc34)=[N+]2[B-](F)(F)n2c1cc1c3ccccc3oc12` as the compound, how does the fluorescence lifetime (in C1CCCCC1) read?
The fluorescence lifetime was 4.21 ns.

What about the fluorescence lifetime (in CCOC(C)=O) of the same compound?
The fluorescence lifetime was 4.41 ns.

And the fluorescence lifetime (in CO)?
Its fluorescence lifetime is 4.44 ns.

For `c1ccc(-c2ccc(-c3nc(-n4c5ccccc5c5ccc6c7ccccc7n(-c7ccccc7)c6c54)nc(-n4c5ccccc5c5ccc6c7ccccc7n(-c7ccccc7)c6c54)n3)cc2)cc1`, which fluorescence lifetime (in Cc1ccccc1) is on record?
The fluorescence lifetime was 8.7 ns.

Which fluorescence lifetime (in ClC(Cl)Cl) does the source give for `CN1CCc2cc(C3=Cc4cccc[n+]4[B-](F)(F)O3)ccc21` here?
The fluorescence lifetime was 3.11 ns.

For `COc1ccc(C2=Nc3cccc4[n+]3[B-](F)(O2)OC(c2ccc(OC)cc2)=N4)cc1`, which fluorescence lifetime (in ClCCl) is on record?
The fluorescence lifetime was 1.8 ns.

For `C[SiH](C)c1ccc([SiH](C)C)c2ccccc12`, which fluorescence lifetime (in C1CCCCC1) is on record?
The fluorescence lifetime was 30 ns.

For `CN(CC(O)c1cccc(O)c1)c1ccc([N+](=O)[O-])c(C2CC(c3cccc4ccccc34)=NN2c2ccccc2)c1` (stereo not drawn), which fluorescence lifetime (in C1CCCCC1) is on record?
Its fluorescence lifetime is 1.14 ns.

What about the fluorescence lifetime (in C1CCOC1) of the same compound?
Its fluorescence lifetime is 3.56 ns.

And the fluorescence lifetime (in C1COCCO1)?
The fluorescence lifetime was 3.58 ns.

And the fluorescence lifetime (in CC#N)?
Its fluorescence lifetime is 3.95 ns.

And the fluorescence lifetime (in CC(C)O)?
Its fluorescence lifetime is 3.42 ns.

And the fluorescence lifetime (in CCOC(C)=O)?
Its fluorescence lifetime is 4.01 ns.

And the fluorescence lifetime (in CCOCC)?
Its fluorescence lifetime is 2 ns.

And the fluorescence lifetime (in CO)?
The fluorescence lifetime was 3.01 ns.

What about the fluorescence lifetime (in Cc1ccccc1) of the same compound?
The fluorescence lifetime was 1.72 ns.

What about the fluorescence lifetime (in ClC(Cl)Cl) of the same compound?
Its fluorescence lifetime is 2.8 ns.

What about the fluorescence lifetime (in O) of the same compound?
Its fluorescence lifetime is 2.42 ns.

With `Cn1c2ccccc2c2c1c1ccccc1n2C` as the compound, how does the fluorescence lifetime (in CCCO) read?
Its fluorescence lifetime is 9 ns.

With `CC(C)[Si]1(C(C)C)c2cc(C=C(C#N)C#N)ccc2-c2ccc(N(C)C)cc21` as the compound, how does the fluorescence lifetime (in C1CCCCC1) read?
The fluorescence lifetime was 0.3 ns.

What about the fluorescence lifetime (in ClCCl) of the same compound?
The fluorescence lifetime was 3.2 ns.

For `O=C(O)CCCc1cc2ccc3cccc4ccc(c1)c2c34`, which fluorescence lifetime (in CO) is on record?
The fluorescence lifetime was 622 ns.

Which results are given for `c1ccc(-c2ccc(-c3ccc(-n4c5ccccc5c5ccccc54)cc3)c3nsnc23)cc1`?
fluorescence lifetime (in C1CCOC1): 7.52 ns; fluorescence lifetime (in CC(C)=O): 5.2 ns; fluorescence lifetime (in CCCCCC): 5.87 ns; fluorescence lifetime (in CCOCC): 7.2 ns

What does the source list for `Cn1nc(-c2ccccc2)c2nc3cc(Cl)ccc3nc21`?
fluorescence lifetime (in C1CCCCC1): 23.9 ns; fluorescence lifetime (in C1CCOC1): 20.1 ns; fluorescence lifetime (in CC#N): 7.74 ns

For `CCN1CCCc2cc3c(cc21)Oc1cc2c(cc1=N3)C(CS(=O)(=O)[O-])CC(C)(C)[N+]=2CCCC(=O)[O-]` (stereo not drawn), which fluorescence lifetime (in O) is on record?
The fluorescence lifetime was 3.6 ns.

Which fluorescence lifetime (in ClCCl) does the source give for `ClP1(Cl)=N[P@@](Cl)(Oc2ccc3ccc4cccc5ccc2c3c45)=N[P@@](Cl)(Oc2ccc3ccc4cccc5ccc2c3c45)=N1` here?
Its fluorescence lifetime is 2.02 ns.

For `C=Cc1cc2cc3c(cc2oc1=O)OCO3`, which fluorescence lifetime (in CC#N) is on record?
Its fluorescence lifetime is 3.68 ns.

What does the source list for `O=c1[nH]c(=O)n([C@@H]2O[C@H](CO)[C@@H](O)[C@H]2O)cc1-c1cc2ccccc2s1`?
fluorescence lifetime (in C1COCCO1): 0.45 ns; fluorescence lifetime (in CC#N): 0.49 ns; fluorescence lifetime (in CO): 0.6 ns; fluorescence lifetime (in O): 1.04 ns

With `C[n+]1ccn(CCCCc2ccc3c(c2)c2ccccc2n3-c2cc(C#N)c(C#N)cc2F)c1` as the compound, how does the fluorescence lifetime (in CC#N) read?
The fluorescence lifetime was 3.26 ns.

What does the source list for `COc1ccc2c3cccc4c(OC)ccc(c5cccc1c52)c43`?
fluorescence lifetime (in C1CCOC1): 3.95 ns; fluorescence lifetime (in Cc1ccccc1): 3.6 ns; fluorescence lifetime (in ClC(Cl)(Cl)Cl): 3.65 ns; fluorescence lifetime (in ClC(Cl)Cl): 3.89 ns; fluorescence lifetime (in ClCCl): 4.33 ns; fluorescence lifetime (in c1ccncc1): 4.02 ns

Which fluorescence lifetime (in ClC(Cl)Cl) does the source give for `Cc1cc(C)c(C2=C3C=CC=[N+]3[B-]3(c4ccc5ccc6cccc7ccc4c5c67)Oc4cc(O)cc5c6ccc(C)cc6c6cc2n3c6c45)c(C)c1` (stereo not drawn) here?
The fluorescence lifetime was 3.5 ns.

For `O=S(=O)(c1ccc(N2c3ccccc3Oc3ccccc32)cc1)c1ccc(N2c3ccccc3Oc3ccccc32)cc1`, which fluorescence lifetime (in C1COCCO1) is on record?
Its fluorescence lifetime is 19 ns.

And the fluorescence lifetime (in CC(C)=O)?
The fluorescence lifetime was 4.3 ns.

What about the fluorescence lifetime (in Cc1ccccc1) of the same compound?
Its fluorescence lifetime is 15 ns.

What about the fluorescence lifetime (in ClC(Cl)Cl) of the same compound?
The fluorescence lifetime was 16 ns.

What about the fluorescence lifetime (in c1cc(-n2c3ccccc3c3ccccc32)cc(-n2c3ccccc3c3ccccc32)c1) of the same compound?
Its fluorescence lifetime is 14 ns.

Which fluorescence lifetime (in CC#N) does the source give for `O=C1O[B-]2(OC1=O)OC(c1ccc3ccccc3c1)=CC(c1ccc3ccccc3c1)=[O+]2` here?
The fluorescence lifetime was 4.6 ns.

What about the fluorescence lifetime (in ClC(Cl)(Cl)Cl) of the same compound?
The fluorescence lifetime was 1.8 ns.

Which fluorescence lifetime (in C1CCCCC1) does the source give for `CC(C)c1ccc(/C=C/c2nc3ccc(N(C)C)cc3s2)cc1` here?
Its fluorescence lifetime is 2.04 ns.

And the fluorescence lifetime (in CC#N)?
The fluorescence lifetime was 3.27 ns.

What does the source list for `COc1ccc2nc3c(nc2c1)c(-c1ccccc1)nn3C`?
fluorescence lifetime (in C1CCCCC1): 5.37 ns; fluorescence lifetime (in C1CCOC1): 12.4 ns; fluorescence lifetime (in CC#N): 16.7 ns

For `c1ccc(N(c2ccccc2)c2ccc(-c3ccc4c(c3)C3(c5cc(-c6ccc(N(c7ccccc7)c7ccccc7)cc6)ccc5O4)c4ccccc4-c4ccccc43)cc2)cc1`, which fluorescence lifetime (in ClCCl) is on record?
Its fluorescence lifetime is 1.2 ns.
